Source: article PMC3224021 (ACS medicinal chemistry letters, 2011)

What was measured:
[1] = target: human GALK (Homo sapiens, UniProt P51570); test: in vitro GALK; type: biochemical; conditions: for inhibitory activity against GALK (in words): in vitro GALK inhibitory assays, tested up to 50μM
[2] = test system: human fibroblast cells; test: cell tolerance / lethality in fibroblast cells; type: cell-based
[3] = test system: GALK in patient fibroblast cells; test: intracellular inhibition of GALK measured by reduction of gal-1P accumulation; type: cell-based, human; conditions: 50μM

Sequence of human GALK (P51570 whole entry): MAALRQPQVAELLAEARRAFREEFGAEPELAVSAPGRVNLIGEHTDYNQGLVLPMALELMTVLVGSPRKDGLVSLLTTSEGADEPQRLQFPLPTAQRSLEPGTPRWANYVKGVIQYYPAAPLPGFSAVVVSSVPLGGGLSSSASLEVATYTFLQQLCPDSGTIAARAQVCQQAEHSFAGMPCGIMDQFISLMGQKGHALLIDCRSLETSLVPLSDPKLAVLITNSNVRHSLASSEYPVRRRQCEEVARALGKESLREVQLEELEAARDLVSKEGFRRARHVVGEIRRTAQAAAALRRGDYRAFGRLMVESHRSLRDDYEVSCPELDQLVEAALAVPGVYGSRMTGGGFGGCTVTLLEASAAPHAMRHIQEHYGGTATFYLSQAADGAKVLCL

| SMILES | inhibitory activity against GALK (in words) [1] | further results |
| --- | --- | --- |
| CC1(C)NC(=O)C(C#N)=C(SCc2ccccc2)S1 [compound 6] | did not display any inhibitory activity | – |
| CSC1=C(C#N)C(=O)NC(c2ccc(Cl)cc2Cl)S1 (stereo not shown) [compound 10] | inactive | – |
| CC1NC(=O)C(C#N)=C(SCc2ccccc2)S1 (stereo not shown) [compound 5] | did not display any inhibitory activity | – |
| N#CC1=C(SCc2ccccc2)SC(c2ccccc2O)NC1=O (stereo not shown) [compound 1] | – | IC50 [1]: 1.4 ± 0.7 µM |
| N#CC1=C(SCc2cccc(N3CCOCC3)c2)SC(c2ccc(O)cc2)NC1=O (stereo not shown) [compound 29] | – | cell tolerance / lethality ([2]; 50μM): well-tolerated; cell lethality ([2]; 100μM or higher): lethal to cells; inhibition of GALK / lowering of gal-1P in cells (in words) [3]: neither 27 nor 29 was able to inhibit GALK or lowered gal-1P |
| N#CC1=C(SCc2cccc(N3CCOCC3)c2)SC(c2cc(O)ccc2O)NC1=O (stereo not shown) [compound 27] | – | cell tolerance ([2]; up to 100μM): well tolerated; inhibition of GALK / lowering of gal-1P in cells (in words) [3]: neither 27 nor 29 was able to inhibit GALK or lowered gal-1P |
| CCCCSC1=C(C#N)C(=O)NC(c2ccccc2O)S1 (stereo not shown) [compound 7] | not all the compounds with hydroxyl groups on the A ring displayed inhibitory activity | – |
| CSC1=C(C#N)C(=O)NC(c2ccccc2O)S1 (stereo not shown) [compound 3] | possess inhibitory activities | – |
| CC(=O)Oc1ccc(C2NC(=O)C(C#N)=C(SCc3ccccc3)S2)cc1OC(C)=O (stereo not shown) [compound 13] | – | cell toxicity ([2]; 50μM or higher concentrations): total cell lethality within hours |
| N#CC1=C(SCc2ccccc2)SC(c2ccc(O)c(O)c2)NC1=O (stereo not shown) [compound 2] | – | toxicity in patient cells ([2]; concentration not given): toxicity |
| N#CC1=C(SCc2ccc(O)cc2)SC2(CCC(C(=O)O)CC2)NC1=O (stereo not shown) [compound 9] | exhibited no activity | – |
| N#CC1=C(SCc2ccccc2)SCNC1=O [compound 8] | did not display any inhibitory activity | – |
| N#CC1=C(SCc2ccccc2)SC(c2ccc(C(=O)O)cc2)NC1=O (stereo not shown) [compound 4] | possess inhibitory activities | – |
